pIC50: −log10 of the molar value.
target: T1, Rec. human COMT (Homo sapiens, UniProt P21964); test: COMT-Fluorescence Assay; assay type: biochemical; conditions: COMT-fluorescence assay, rec. human COMT 25 nM, 4-Nitrocatechol-Alexa488 200 nM, SAM 500 nM; read-out: IC50
T1 sequence (P21964 1-271): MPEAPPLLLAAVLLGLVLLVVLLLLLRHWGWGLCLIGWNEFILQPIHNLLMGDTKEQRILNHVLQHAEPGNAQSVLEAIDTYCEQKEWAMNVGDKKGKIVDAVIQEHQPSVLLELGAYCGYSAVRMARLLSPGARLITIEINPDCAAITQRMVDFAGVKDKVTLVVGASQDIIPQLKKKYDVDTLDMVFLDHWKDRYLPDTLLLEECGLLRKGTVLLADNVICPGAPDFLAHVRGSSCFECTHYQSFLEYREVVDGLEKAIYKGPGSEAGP
Description: This intramolecular interaction is disturbed if the 4-Nitrocatechol is methylated. […] This increase of fluorescence intensity can be followed in a kinetic measurement. The slope in the linear range of the kinetic is calculated. An inhibitor compound decreases the slope.
Signal [rfu/min]=(rfu(end-point)−rfu(startpoint))/incubation_time_#2

Structure (SMILES) | pIC50
CN1CCC(CCOCc2ccccc2-c2cc(O)c3nc[nH]c(=O)c3c2)CC1 [Example 256, 8-Hydroxy-6-(2-((2-(1-methylpiperidin-4-yl)ethoxy)methyl)phenyl)quinazolin-4(3H)-one] | 7.44
O=c1[nH]cnc2c(O)cc(C(O)c3ccccc3)cc12 (centres unmarked) [Example 67, 8-Hydroxy-6-(hydroxy(phenyl)methyl)quinazolin-4(3H)-one] | 5.13
O=c1[nH]cnc2c(O)cc(-c3ccc(F)cc3)c(-c3ccncc3)c12 [Example 56, 6-(4-Fluorophenyl)-8-hydroxy-5-(pyridin-4-yl)quinazolin-4(3H)-one] | 8.00
O=c1[nH]cnc2c(O)ccc(-c3ccc(F)cc3)c12 [Example 151, 5-(4-Fluorophenyl)-8-hydroxyquinazolin-4(3H)-one] | 6.80
CCc1ccccc1-c1cc(O)c2nc[nH]c(=O)c2c1 [Example 217, 6-(2-Ethylphenyl)-8-hydroxyquinazolin-4(3H)-one] | 7.30
O=c1[nH]cnc2c(O)cc(Cc3ccccc3)cc12 [Example 9, 6-Benzyl-8-hydroxyquinazolin-4(3H)-one] | 5.88
Cc1ccc(-c2cc(O)c3nc[nH]c(=O)c3c2)cn1 [Example 166, 8-Hydroxy-6-(6-methylpyridin-3-yl)quinazolin-4(3H)-one] | 7.22
CS(=O)(=O)c1ccc(-c2c(-c3ccc(F)cc3)cc(O)c3nc[nH]c(=O)c23)cc1 [Example 57, 6-(4-Fluorophenyl)-8-hydroxy-5-(4-(methylsulfonyl)phenyl)quinazolin-4(3H)-one] | 8.00
O=c1[nH]cnc2c(O)cc(-c3ccccc3C(F)(F)F)cc12 [Example 221, 8-Hydroxy-6-(2-(trifluoromethyl)phenyl)quinazolin-4(3H)-one] | 7.52
O=C(c1cccc(-c2cc(O)c3nc[nH]c(=O)c3c2)c1)N1CCS(=O)(=O)CC1 [Example 192, 6-[3-(1,1-Dioxo-1λ^6-thiomorpholine-4-carbonyl)-phenyl]-8-hydroxy-3H-quinazolin-4-one] | 7.70
O=c1[nH]cnc2c(O)cc(-c3ccc(-c4ccccn4)s3)cc12 [Example 89, 8-Hydroxy-6-(5-(pyridin-2-yl)thiophen-2-yl)quinazolin-4(3H)-one] | 7.70
O=c1[nH]cnc2c(O)cc(-c3cccnc3O)cc12 [Example 180, 8-Hydroxy-6-(2-hydroxypyridin-3-yl)quinazolin-4(3H)-one] | 6.57
Cn1ncc2c(-c3cc(O)c4nc[nH]c(=O)c4c3)cccc21 [Example 156, 8-Hydroxy-6-(1-methyl-1H-indazol-4-yl)quinazolin-4(3H)-one] | 8.00
Cc1ccc(O)c2nc[nH]c(=O)c12 [Example 140, 8-Hydroxy-5-methylquinazolin-4(3H)-one] | 5.30
O=c1[nH]cnc2c(O)cc(-c3ccccc3OCc3ccccc3)cc12 [Example 227, 6-(2-(Benzyloxy)phenyl)-8-hydroxyquinazolin-4(3H)-one] | 7.30
CC(=O)Nc1ccccc1-c1cc(O)c2nc[nH]c(=O)c2c1 [Example 159, N-(2-(8-Hydroxy-4-oxo-3,4-dihydroquinazolin-6-yl)phenyl)acetamide] | 6.26
CS(=O)(=O)Cc1ccccc1-c1cc(O)c2nc[nH]c(=O)c2c1Cl [Example 119, 5-Chloro-8-hydroxy-6-(2-(methylsulfonylmethyl)phenyl)quinazolin-4(3H)-one] | 6.21
CN(C)Cc1cccc(-c2cc(O)c3nc[nH]c(=O)c3c2)c1 [Example 229, 6-(3-Dimethylaminomethyl-phenyl)-8-hydroxy-3H-quinazolin-4-one] | 7.27

Second part, the compound after the results:

pIC50 | Structure (SMILES)
5.80 | O=c1[nH]cnc2c(O)c(Cl)c(Br)cc12 [Example 246, 6-Bromo-7-chloro-8-hydroxyquinazolin-4(3H)-one]
6.01 | Cc1c(-c2cc(O)c3nc[nH]c(=O)c3c2)c(C(F)(F)F)nn1C [Example 95, 6-(1,5-Dimethyl-3-(trifluoromethyl)-1H-pyrazol-4-yl)-8-hydroxyquinazolin-4(3H)-one]
6.08 | O=c1[nH]cnc2c(O)cc(Oc3ccc(F)cc3)cc12 [Example 189, 6-(4-Fluorophenoxy)-8-hydroxyquinazolin-4(3H)-one]
6.77 | Cc1n[nH]cc1-c1cc(O)c2nc[nH]c(=O)c2c1 [Example 205, 8-Hydroxy-6-(3-methyl-1H-pyrazol-4-yl)quinazolin-4(3H)-one]
6.85 | O=c1[nH]cnc2c(O)cc(Br)cc12 [Example 126, 6-Bromo-8-hydroxyquinazolin-4(3H)-one]
7.00 | O=C(c1ccccc1)c1ccccc1-c1cc(O)c2nc[nH]c(=O)c2c1 [Example 99, 6-(2-Benzoylphenyl)-8-hydroxyquinazolin-4(3H)-one]
7.05 | CCOC(=O)c1[nH]c(-c2cc(O)c3nc[nH]c(=O)c3c2)nc1C [Example 80, Ethyl 2-(8-hydroxy-4-oxo-3,4-dihydroquinazolin-6-yl)-4-methyl-1H-imidazole-5-carboxylate]
7.10 | Cc1ccc(C)c2c1C=C(c1cc(O)c3nc[nH]c(=O)c3c1)CC2 [Example 19, 6-(5,8-dimethyl-3,4-dihydro-naphthalen-2-yl)-8-hydroxy-3H-quinazolin-4-one]
7.10 | O=c1[nH]cnc2c(O)cc(-c3ccc4c(c3)CCNC4)cc12 [Example 171, 8-Hydroxy-6-(1,2,3,4-tetrahydroisoquinolin-6-yl)quinazolin-4(3H)-one]
7.10 | CC(C)N1CCc2c(cccc2-c2cc(O)c3nc[nH]c(=O)c3c2)C1 [Example 108, 8-Hydroxy-6-(2-isopropyl-1,2,3,4-tetrahydroisoquinolin-5-yl)quinazolin-4(3H)-one 2,2,2-trifluoroacetate]
7.22 | Cc1nnc(-c2cc(O)c3nc[nH]c(=O)c3c2)s1 [Example 83, 8-Hydroxy-6-(5-methyl-1,3,4-thiadiazol-2-yl)quinazolin-4(3H)-one]
7.30 | O=c1[nH]cnc2c(O)cc(-c3ccccc3COCCN3CCCC3)cc12 [Example 239, 8-Hydroxy-6-[2-(2-pyrrolidin-1-yl-ethoxymethyl)-phenyl]-3H-quinazolin-4-one; compound with trifluoro-acetic acid]
7.40 | O=c1[nH]cnc2c(O)cc(Br)c(Cl)c12 [Example 117, 6-Bromo-5-chloro-8-hydroxyquinazolin-4(3H)-one]
7.40 | O=c1[nH]cnc2c(O)cc(-c3ccc(F)cc3)c(C(F)(F)F)c12 [Example 43, 6-(4-Fluorophenyl)-8-hydroxy-5-(trifluoromethyl)quinazolin-4(3H)-one]
7.70 | O=c1[nH]cnc2c(O)cc(-c3ccnc(N4CCNCC4)c3)cc12 [Example 185, 8-Hydroxy-6-(2-(piperazin-1-yl)pyridin-4-yl)quinazolin-4(3H)-one]
7.70 | O=C(c1cccc(-c2cc(O)c3nc[nH]c(=O)c3c2)c1)N1CCOCC1 [Example 175, 8-Hydroxy-6-(3-(morpholine-4-carbonyl)phenyl)quinazolin-4(3H)-one]

same assay, conditions: IC50, COMT-fluorescence assay, rec. human COMT 25 nM, 4-Nitrocatechol-Alexa488 200 nM, SAM 500 nM

pIC50 | Structure (SMILES)
6.77 | CC(=O)c1ccccc1-c1cc(O)c2nc[nH]c(=O)c2c1 [Example 112, 6-(2-Acetylphenyl)-8-hydroxyquinazolin-4(3H)-one]

tested on: rat anhedonia model; test: not given; conditions: cited from earlier work

Structure (SMILES) | anti-depressant activity
Cc1ccc(C(=O)c2cc(O)c(O)c([N+](=O)[O-])c2)cc1 [Tolcapone, tolcapone] | anti-depressant activity

tested on: patients with major depressive disorder (MDD); test: not given; conditions: open clinical trial, 21 patients with MDD, 8 weeks, 400 mg b.i.d.; cited from earlier work

Structure (SMILES) | anti-depressant activity
Cc1ccc(C(=O)c2cc(O)c(O)c([N+](=O)[O-])c2)cc1 [Tolcapone, tolcapone] | anti-depressant activity

tested on: not given; test: not given; conditions: in vivo; cited from earlier work

Structure (SMILES) | brain/plasma ratio
Cc1ccc(C(=O)c2cc(O)c(O)c([N+](=O)[O-])c2)cc1 [Tolcapone, tolcapone] | ~0.01

From patent publication US9656971B2, “COMT inhibitors” (Hoffmann-La Roche Inc., priority 2012, dated 2017)
